Measurements: patent publication US9950026B2, “Methods for reducing oxidative damage” (Cornell Research Foundation, Inc., priority 2004, dated 2018)
Entries after “also recorded” stand apart in the source; their conditions may differ. Where a SMILES comes first, the peptide text is derived from it. [ ]: non-standard residue; d: D form. Dmt = Cc1cc(O)cc(C)c1C[C@H](N)C(=O)O

Key:
N2A cells [1] = experiment: Intracellular ROS (DCF fluorescence) in cells treated with tBHP; assay type: cell-based, murine; conditions: for EC50, reduction of intracellular ROS / intracellular ROS: tBHP 0.5 or 1 mM 40 min, then peptide 4 hr
Procedure: FIG. 22A-22C. […] (A) N2A cells were loaded with DCFDA, and then exposed to 100 μM tBHP alone, or with SS-31. Intracellular ROS was quantified by the formation of fluorescent DCF. Results shown are mean values (n=3). (B)(a-c) N2A cells were plated in glass bottom dishes and treated with 50 μM tBHP, alone or with 1 nM SS-31, for 6 h. Cells were loaded with DCFDA (10 μM) and imaged by confocal laser scanning microscopy using ex/em of 495/525 nm. (C) Effect of 1 nM SS-31 in reducing intracellular ROS induced by 50 μM tBHP (*P<0.001 compared to untreated cells; *P<0.05 compared to tBHP alone).
(§1) Cells were washed twice and replaced with medium alone or medium containing varying concentrations of SS-02 or SS-31 for 4 hr. Intracellular ROS was measured by carboxy-H2DCFDA (Molecular Probes, Portland, Oreg.). Cell death was assessed by a cell proliferation assay (MTS assay, Promega, Madison, Wis.).
Intracellular ROS was evaluated using the fluorescent probe DCFH-DA (5-(and -6)-carboxy-2′,7′-dichlorodihydrofluorescein diacetate). DCFH-DA enters cells passively and is then deacetylated to nonfluorescent DCFH. DCFH reacts with ROS to form DCF, the fluorescent product. N2A cells in 96 sell plates were washed with HBSS and loaded with 10 μM of DCFDA for 30 min. […]. at 37° C. Cells were washed 3 times with BSS and exposed to 0.1 mM of t-BHP, alone or with SS-31. The oxidation of DCF was monitored in real time by a fluorescence microplate reader (Molecular Devices) using 485 nm for excitation and 530 nm for emission.
N2A cells in glass bottom dish were treated with 0.1 mM t-BHP, alone or with 1 nM SS-31, for 6 h. Cells were then loaded with 10 μm of dichlorofluorescin (ex/em=485/530) for 30 min at 37° C., 5% CO2. Then cells were subjected 3 times wash with HBSS and stained with 20 nM of Mitotracker TMRM (ex/em=550/575 nm) for 15 min at 37° C. and examined by confocal laser scanning microscopy.

[2] = tested on: Human LDL (low density lipoprotein); experiment: LDL oxidation induced by CuSO4 (conjugated dienes); assay type: biochemical; conditions: for rate of LDL oxidation (rate of formation of conjugated dienes): peptides 100 μM
Procedure: Human LDL (low density lipoprotein) was prepared fresh from stored plasma. LDL oxidation was induced catalytically by the addition of […] CuSO4, and the formation of conjugated dienes was monitored at […] for 5 h at 37° C. (B. Moosmann and C. Behl, Mol Pharmacol., 61, 260-268 (2002)).

[3] = tested on: isolated guinea pig hearts; experiment: HNE-modified proteins in isolated hearts, brief ischemia-reperfusion (Langendorff); conditions: 100 nM SS-02, 1 nM SS-31
Procedure: Isolated guinea pig hearts were perfused in a retrograde manner in a Langendorff apparatus and subjected to various intervals of ischemia-reperfusion. Hearts were then fixed immediately and embedded in paraffin. Immunohistochemical analysis of 4-hydroxy-2-nonenol (HNE)-modified proteins in the paraffin sections was carried out using an anti-HNE antibody.
(A) Immunohistochemical analysis of 4-hydroxy-2-nonenol (HNE)-modified proteins in paraffin sections from guinea pig hearts aerobically perfused 30 min with (a) buffer; (b) 100 nM SS-02; (c) 100 nM SS-20 and (d) 1 nM SS-31, then subjected to 30 min ischemia and reperfused for 90 min with same peptides. Tissue slices were incubated with […] antibody. (e) Background control: staining without primary antibody.
(B) Immunohistochemical analysis of HNE-modified proteins in paraffin sections from guinea pig hearts aerobically perfused 30 min with buffer; then subjected to 30 min ischemia and reperfused with (a) buffer; (b) 100 nM SS-02; (c) 100 nM SS-20 and (d) 1 nM SS-31 for 90 min with same peptides. Tissue slices were incubated with anti-HNE antibody. (e) Background control staining without primary antibody.

N2A cells [4] = experiment: Cell viability, MTS assay, cells treated with tBHP; assay type: cell-based, murine; conditions: for EC50, increase of cell survival / cell survival (MTS): tBHP 0.5 or 1 mM 40 min, then peptide 4 hr
Procedure: as §1
Neuronal N2A and SH-SY5Y cells were plated in 96-well plate at a density of 1×10^4/well and allowed to grow for 2 days before treatment with t-butyl hydroperoxide (tBHP) (0.05-0.1 mM) with or without SS-31 (10^−12 M to 10^−9 M for 24 h. Cell death was assessed by a cell proliferation assay (MTS assay, Promega, Madison, Wis.).

[5] = Linoleic acid peroxidation induced by ABAP (conjugated dienes); conditions: for rate of linoleic acid peroxidation (slope of diene formation): peptides 100 μM
[6] = tested on: isolated mouse liver mitochondria; experiment: H2O2 production by isolated mitochondria, luminol chemiluminescence; assay type: biochemical; conditions: for amount of H2O2 generated (AUC over 20 min): spontaneous, SS peptides 100 μM
Procedure: Because mitochondria are a major source of ROS production, the effect of SS-02 on H2O2 formation in isolated mitochondria under basal conditions as well as after treatment with antimycin, a complex III inhibitor was examined. Livers were harvested from mice and homogenized in ice-cold buffer and centrifuged at 13800×g for 10 m. The pellet was washed once and then re-suspended in 0.3 ml of wash butter and placed on ice until use H2O2 was measured using luminol chemiluminescence as described previously (Y. Li, H. Zhu, M. A. Trush, Biochim. Biophys. Acta 1428, 1-12 (1999)). 0.1 mg mitochondrial protein was added to 0.5 ml potassium phosphate buffer (100 mM, pH 8.0) in the absence or presence of SS peptides (100 μM). 25 mM luminol and 0.7 IU horseradish peroxidase were added, and chemilumunescence was monitored with a Chronolog Model 560 aggregometer (Havertown, Pa.) for 20 min at 37° C. The amount of H2O2 produced was quantified as the area under the curve (AUC) over 20 min, and all data were normalized to AUC produced by mitochondria alone.
H2O2 was measured using luminol chemiluminescence as described previously (Y, Li, H. Zhu, M. A. Trush, Biochim. Biophys. Acta 1428, 1-12 (1999)). 0.1 mg mitochondrial protein was added to 0.5 ml potassium phosphate buffer (100 mM, pH 8.0) in the absence or presence of SS-31. 25 mM luminol and 0.7 IU horseradish peroxidase were added, and chemilumunescence was monitored with a Chronolog Model 560 aggregometer (Havertown, Pa.) for 20 min at 37° C. The amount of H2O2 produced was quantified as the area under the curve (AUC) over 20 min, and all data were normalized to AUC produced by mitochondria alone.

[7] = peptide only during 90 min reperfusion
[8] = peptide perfused 30 min before 30 min ischemia and during 90 min reperfusion

Compound: Cc1cc(O)cc(C)c1C[C@H](NC(=O)[C@H](N)CCCNC(=N)N)C(=O)N[C@@H](CCCCN)C(=O)N[C@@H](Cc1ccccc1)C(N)=O [SS-31, D-Arg-2′6′-Dmt-Lys-Phe-NH2] (H-[dR][Dmt]KF-NH2; N-terminus assumed)
- DCF fluorescence (fluorescent microscopy) (N2A cells [1]; 50 μM tBHP, 1 nM SS-31, 6 h): significantly reduced
- reduction of ROS production (N2A cells [1]; 100 μM tBHP, 1 nM SS-31): > 50%
- rate of ROS accumulation/production (N2A cells [1]; 0.1 mM (100 μM) t-BHP, over 4 h): dose-dependently inhibited; also recorded: dose-dependently reduced
- ROS accumulation (DCF fluorescence, confocal) (N2A cells [1]; 0.1 mM t-BHP, 1 nM SS-31, 6 h): reduced ROS accumulation
- EC50, reduction of intracellular ROS (N2A cells [1]): nM range
- intracellular ROS (N2A cells [1]): dose-dependently reduced intracellular ROS
- rate of LDL oxidation (rate of formation of conjugated dienes) [2]: reduced rate of LDL oxidation
- lipid peroxidation (HNE-modified proteins) [3, 7]: reduced lipid peroxidation
- lipid peroxidation (HNE-modified proteins) [3, 8]: reduced lipid peroxidation
- concentration achieving complete protection against t-BHP (N2A cells [4]; t-BHP 0.05-0.1 mM, 24 h): 1 nM
- t-BHP-induced cytotoxicity (N2A cells [4]; t-BHP 0.05-0.1 mM, 24 h, concurrent treatment): dose-dependent reduction
- EC50, increase of cell survival (N2A cells [4]): nM range
- cell survival (MTS) (N2A cells [4]): increased cell survival
- rate of linoleic acid peroxidation (slope of diene formation) [5]: reduced the rate of linoleic acid peroxidation
- production of H2O2 induced by antimycin ([6]; dose response): dose-dependently reduced
- spontaneous production of H2O2 ([6]; dose response): dose-dependently reduced
- amount of H2O2 generated (AUC over 20 min) [6]: significantly reduced

Compound: 2′,6′-Dmt-Arg-Phe-Lys-NH2 [SS-02]
- EC50, reduction of intracellular ROS (N2A cells [1]): nM range
- intracellular ROS (N2A cells [1]): dose-dependently reduced intracellular ROS
- rate of LDL oxidation (rate of formation of conjugated dienes) [2]: reduced rate of LDL oxidation
- rate of LDL oxidation ([2]; varying concentrations, 10 mM CuSO4): dose-dependently inhibited
- lipid peroxidation (HNE-modified proteins) [3, 7]: reduced lipid peroxidation
- lipid peroxidation (HNE-modified proteins) [3, 8]: reduced lipid peroxidation
- EC50, increase of cell survival (N2A cells [4]): nM range
- cell survival (MTS) (N2A cells [4]): increased cell survival
- rate of linoleic acid peroxidation (slope of diene formation) [5]: reduced the rate of linoleic acid peroxidation
- peroxidation of linoleic acid ([5]; varying concentrations): dose-dependently inhibited
- amount of H2O2 generated (AUC over 20 min) [6]: significantly reduced
